Measurements reported in patent publication US20230100838A1 (Revolution Medicines, Inc., priority 2019, published 2023).

What was measured:
Assay type in all cases: binding
[1] = target: T1, GDP-loaded K-Ras (1-169) C51S, C80L, C118S (Homo sapiens, UniProt P01116, C118S/C51S/C80L); experiment: K-Ras WT (GDP) cross-linking assay (conjugate formation, TOF mass spectrometry); conditions: percent covalently modified K-Ras by MS, room temperature, typical compound conc. 2, 10, 25 μM, endpoints 1 and 24 h
T1 construct: GDP-loaded K-Ras (1-169) C51S, C80L, C118S
Method in brief: (§1)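 5 μM protein (final, from 50 μM) in HEPES/NaCl/MgCl2 buffer pH 7.4 with compound typically at 2, 10 and 25 μM, room temperature, 1 and 24 h endpoints; formic acid quench. Intact-protein LC–TOF MS; percent modification is covalent adduct peak height over total K-Ras peak height.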

[2] = target: T2, GDP-loaded K-Ras (1-169) G12D, C51S, C80L, C118S (Homo sapiens, UniProt P01116, C118S/C51S/C80L/G12D); experiment: K-Ras G12D(GDP) cross-linking assay (conjugate formation, TOF mass spectrometry); conditions: percent covalently modified K-Ras by MS, room temperature, typical compound conc. 2, 10, 25 μM, endpoints 1 and 24 h
T2 construct: GDP-loaded K-Ras (1-169) G12D, C51S, C80L, C118S
Method in brief: as §1

[3] = target: K-Ras G12S (Homo sapiens, UniProt P01116, G12S); experiment: K-Ras G12S cross-linking assay (comparable procedure, conjugate formation, TOF mass spectrometry)
Method in brief: as §1

[4] = Table 4, percent covalently modified K-Ras by MS
[5] = Table 5, percent covalently modified K-Ras by MS

| WT x-linking (%) ([1]; Table 4) | G12D x-linking (%) ([2]; Table 4) | G12S x-linking (%) [3, 4] | SMILES | WT x-linking (%) ([1]; Table 5) | G12D x-linking (%) ([2]; Table 5) | G12S x-linking (%) [3, 5] |
| --- | --- | --- | --- | --- | --- | --- |
| + (0 < x ≤ 20) | + (0 < x ≤ 20) | + (0 < x ≤ 10) | CC(=O)N1CC1C(=O)N1CCN(c2nc(OC[C@@H]3CCCN3C)nc3c2CCN(c2cccc4cccc(C)c24)C3)CC1 (stereo partly drawn) [Example 47, 1-(2-(4-(7-(8-methylnaphthalen-1-yl)-2-(((S)-1-methylpyrrolidin-2-yl)methoxy)-5,6,7,8-tetrahydropyrido[3,4-d]pyrimidin-4-yl)piperazine-1-carbonyl)aziridin-1-yl)ethan-1-one] | – | – | – |
| + (0 < x ≤ 20) | + (0 < x ≤ 20) | + (0 < x ≤ 10) | Cc1cccc2cccc(N3CCc4c(nc(OC[C@@H]5CCCN5C)nc4N4CCC(N=C=Nc5ccccc5)CC4)C3)c12 [Example 48, N-(1-(7-(8-methylnaphthalen-1-yl)-2-(((S)-1-methylpyrrolidin-2-yl)methoxy)-5,6,7,8-tetrahydropyrido[3,4-d]pyrimidin-4-yl)piperidin-4-yl)-N-phenylmethanediimine] | – | – | – |
| + (0 < x ≤ 20) | + (0 < x ≤ 20) | + (0 < x ≤ 10) | Cc1cccc2cccc(N3CCc4c(nc(OC[C@@H]5CCCN5C)nc4N4CCC(N=C=NCc5ccc(Cl)cc5)CC4)C3)c12 [Example 49, N-(4-chlorobenzyl)-N-(1-(7-(8-methylnaphthalen-1-yl)-2-(((S)-1-methylpyrrolidin-2-yl)methoxy)-5,6,7,8-tetrahydropyrido[3,4-d]pyrimidin-4-yl)piperidin-4-yl)methanediimine] | – | – | – |
| + (0 < x ≤ 20) | + (0 < x ≤ 20) | + (0 < x ≤ 10) | COc1ccc(CN=C=NC2CCN(c3nc(OC[C@@H]4CCCN4C)nc4c3CCN(c3cccc5cccc(C)c35)C4)CC2)cc1 [Example 50, N-(4-methoxybenzyl)-N-(1-(7-(8-methylnaphthalen-1-yl)-2-(((S)-1-methylpyrrolidin-2-yl)methoxy)-5,6,7,8-tetrahydropyrido[3,4-d]pyrimidin-4-yl)piperidin-4-yl)methanediimine] | – | – | – |
| + (0 < x ≤ 20) | + (0 < x ≤ 20) | + (0 < x ≤ 10) | Cc1cccc2cccc(N3CCc4c(nc(OC[C@@H]5CCCN5C)nc4N4CCC(C(O)(O)C(F)(F)F)CC4)C3)c12 [Example 51, (S)-2,2,2-trifluoro-1-(1-(7-(8-methylnaphthalen-1-yl)-2-((1-methylpyrrolidin-2-yl)methoxy)-5,6,7,8-tetrahydropyrido[3,4-d]pyrimidin-4-yl)piperidin-4-yl)ethane-1,1-diol] | – | – | – |
| + (0 < x ≤ 20) | + (0 < x ≤ 20) | + (0 < x ≤ 10) | Cc1cccc2cccc(N3CCc4c(nc(OC[C@@H]5CCCN5C)nc4N4CCC(B(O)O)CC4)C3)c12 [Example 52, (S)-(1-(7-(8-methylnaphthalen-1-yl)-2-((1-methylpyrrolidin-2-yl)methoxy)-5,6,7,8-tetrahydropyrido[3,4-d]pyrimidin-4-yl)piperidin-4-yl)boronic Acid] | – | – | – |
| + (0 < x ≤ 20) | + (0 < x ≤ 20) | + (0 < x ≤ 10) | CCCN=C=NC1CCN(c2nc(=O)n(-c3c(C)ccnc3C(C)C)c3nc(-c4ccccc4F)c(F)cc23)CC1 [Example 53, 6-fluoro-7-(2-fluorophenyl)-1-(2-isopropyl-4-methylpyridin-3-yl)-4-(4-(((propylimino)methylene)amino)piperidin-1-yl)pyrido[2,3-d]pyrimidin-2(1H)-one] | – | – | – |
| + (0 < x ≤ 20) | + (0 < x ≤ 20) | + (0 < x ≤ 10) | COCCN=C=NC1CCN(c2nc(=O)n(-c3c(C)ccnc3C(C)C)c3nc(-c4ccccc4F)c(F)cc23)CC1 [Example 54, 6-fluoro-7-(2-fluorophenyl)-1-(2-isopropyl-4-methylpyridin-3-yl)-4-(4-((((2-methoxyethyl)imino)methylene)amino)piperidin-1-yl)pyrido[2,3-d]pyrimidin-2(1H)-one] | – | – | – |
| ++ (20 < x ≤ 100) | ++ (20 < x ≤ 40) | ++ (10 < x ≤ 100) | CCCN=C=NCCCN(C)c1nc(=O)n(-c2c(C)ccnc2C(C)C)c2nc(-c3ccccc3F)c(F)cc12 [Example 55, 6-fluoro-7-(2-fluorophenyl)-1-(2-isopropyl-4-methylpyridin-3-yl)-4-(methyl(3-(((propylimino)methylene)amino)propyl)amino)pyrido[2,3-d]pyrimidin-2(1H)-one] | – | – | – |
| ++ (20 < x ≤ 100) | ++ (20 < x ≤ 40) | ++ (10 < x ≤ 100) | COCCN=C=NCCCN(C)c1nc(=O)n(-c2c(C)ccnc2C(C)C)c2nc(-c3ccccc3F)c(F)cc12 [Example 56] | – | – | – |
| + (0 < x ≤ 20) | ++ (20 < x ≤ 40) | ++ (10 < x ≤ 100) | Cc1ccnc(C(C)C)c1-n1c(=O)nc(N(C)CCCN=C=NCc2ccccc2)c2cc(F)c(-c3ccccc3F)nc21 [Example 57] | – | – | – |
| + (0 < x ≤ 20) | + (0 < x ≤ 20) | ++ (10 < x ≤ 100) | COc1ccc(CN=C=NCCCN(C)c2nc(=O)n(-c3c(C)ccnc3C(C)C)c3nc(-c4ccccc4F)c(F)cc23)cc1 [Example 58] | – | – | – |
| – | – | – | Cc1cccc2cccc(N3CCc4c(nc(OC[C@@H]5CCCN5C)nc4N4CCN(C(=O)[C@H]5CN5)[C@@H](CC#N)C4)C3)c12 [Example 63, 2-((S)-1-((R)-aziridine-2-carbonyl)-4-(7-(8-methylnaphthalen-1-yl)-2-(((S)-1-methylpyrrolidin-2-yl)methoxy)-5,6,7,8-tetrahydropyrido[3,4-d]pyrimidin-4-yl)piperazin-2-yl)acetonitrile] | + (0 < x ≤ 20) | ++ (20 < x ≤ 40) | + (0 < x ≤ 10) |
| – | – | – | Cc1cccc2cccc(N3CCc4c(nc(OC[C@@H]5CCCN5C)nc4N4CCN(C(=O)[C@@H]5CN5)[C@@H](CC#N)C4)C3)c12 [Example 64, 2-((S)-1-((S)-aziridine-2-carbonyl)-4-(7-(8-methylnaphthalen-1-yl)-2-(((S)-1-methylpyrrolidin-2-yl)methoxy)-5,6,7,8-tetrahydropyrido[3,4-d]pyrimidin-4-yl)piperazin-2-yl)acetonitrile] | + (0 < x ≤ 20) | + (0 < x ≤ 20) | + (0 < x ≤ 10) |
| – | – | – | Cc1ccnc(C(C)C)c1-n1c(=O)nc(N2CCN(C(=O)[C@H]3CN3)C[C@@H]2C)c2cc(F)c(-c3c(O)cccc3F)nc21 [Example 65, 4-((S)-4-((R)-aziridine-2-carbonyl)-2-methylpiperazin-1-yl)-6-fluoro-7-(2-fluoro-6-hydroxyphenyl)-1-(2-isopropyl-4-methylpyridin-3-yl)pyrido[2,3-d]pyrimidin-2(1H)-one] | + (0 < x ≤ 20) | + (0 < x ≤ 20) | + (0 < x ≤ 10) |
| – | – | – | Cc1ccnc(C(C)C)c1-n1c(=O)nc(N2CCN(C(=O)[C@@H]3CN3)C[C@@H]2C)c2cc(F)c(-c3c(O)cccc3F)nc21 [Example 66, 4-((S)-4-((S)-aziridine-2-carbonyl)-2-methylpiperazin-1-yl)-6-fluoro-7-(2-fluoro-6-hydroxyphenyl)-1-(2-isopropyl-4-methylpyridin-3-yl)pyrido[2,3-d]pyrimidin-2(1H)-one] | + (0 < x ≤ 20) | + (0 < x ≤ 20) | + (0 < x ≤ 10) |
| – | – | – | Cc1ccnc(C(C)C)c1-n1c(=O)nc(N2CCC(CN=C=NCc3ccccc3)CC2)c2cc(F)c(-c3ccccc3F)nc21 [Example 69, 4-(4-((((benzylimino)methylene)amino)methyl)piperidin-1-yl)-6-fluoro-7-(2-fluorophenyl)-1-(2-isopropyl-4-methylpyridin-3-yl)pyrido[2,3-d]pyrimidin-2(1H)-one] | + (0 < x ≤ 20) | + (0 < x ≤ 20) | + (0 < x ≤ 10) |

| SMILES | WT x-linking (%) ([1]; Table 4) | G12D x-linking (%) ([2]; Table 4) | G12S x-linking (%) [3, 4] | WT x-linking (%) ([1]; Table 5) | G12D x-linking (%) ([2]; Table 5) | G12S x-linking (%) [3, 5] |
| --- | --- | --- | --- | --- | --- | --- |
| Cc1cccc2cccc(N3CCc4c(nc(OC[C@@H]5CCCN5C)nc4N4CCC(N(C)C(=O)C5CN5C)CC4)C3)c12 (stereo partly drawn) [Example 45, N,1-dimethyl-N-(1-(7-(8-methylnaphthalen-1-yl)-2-(((S)-1-methylpyrrolidin-2-yl)methoxy)-5,6,7,8-tetrahydropyrido[3,4-d]pyrimidin-4-yl)piperidin-4-yl)aziridine-2-carboxamide] | + (0 < x ≤ 20) | + (0 < x ≤ 20) | + (0 < x ≤ 10) | – | – | – |
| Cc1cccc2cccc(N3CCc4c(nc(OC[C@@H]5CCCN5C)nc4N4CCN(C(=O)C5CN5)CC4)C3)c12 (stereo partly drawn) [Example 46, aziridin-2-yl(4-(7-(8-methylnaphthalen-1-yl)-2-(((S)-1-methylpyrrolidin-2-yl)methoxy)-5,6,7,8-tetrahydropyrido[3,4-d]pyrimidin-4-yl)piperazin-1-yl)methanone] | + (0 < x ≤ 20) | + (0 < x ≤ 20) | + (0 < x ≤ 10) | – | – | – |
